Assays:
Type in all cases: in vivo
Turnip = experiment: Greenhouse multispecies herbicide screen with/without P. mendocina enzyme; details: for CHL (chlorosis) / NEC (necrosis) / PHY (phytotoxicity) / VIG (vigor) / % PHY (phytotoxicity): two weeks after treatment
Source text: (§1) Several plant species including weeds and crops are used in these experiments.
(§2) A number of herbicides from various chemical classes were compared in a multispecies screen for percent chlorosis, necrosis and vigor reduction both with and without application of the enzyme from Pseudomonas mendocina ATCC 53552 described earlier. The herbicides were applied to various plants at the manufacturers recommended doses and at 10% and 40% of the recommended dose. Two different enzyme concentrations were used: 0.5 mg/ml (HE) and 0.05 mg/ml (LE) and applied at the rate of 40 gallons/acre. All spraying solutions were at pH 10 and contained 100 mm sodium phosphate each. Ratings were done at 6 and 12 days after the treatment. All the experiments were carried out in a greenhouse.
(§3) Chlorosis--figures represent percent of plants showing chlorosis.
(§4) Necrosis--figures represent percent of plants showing necrosis.
(§5) Vigor--figures represent percent of plants showing decreased vigor.
(§6) Phytotoxicity--figures represent the average percent of chlorosis, necrosis, and vigor for a given sample.
(§7) The method of Example 1 was used except that the enzyme was applied 2 hours prior to administering the agricultural chemical with the following results. Ratings were done two weeks after treatment

Soybeans = experiment: as above; details: two weeks after treatment
Source text: as §1, §2, §3, §4, §5, §6, §7

various plants = experiment: Greenhouse multispecies herbicide screen, statements on all tested plants
Source text: as §1
as §2, with “Ratings were done at 6 and 12 days after the treatment.” left out

[1] = Example 8: BASAGRAN 10% dose, High Enzyme applied 2 hours prior
[2] = Example 8: BASAGRAN 10% dose, Low Enzyme applied 2 hours prior
[3] = Example 8: BASAGRAN 10% dose, No Enzyme

CN(C)C(=O)Nc1ccc(Cl)c(Cl)c1 [KARMEX, 3-(3,4-dichlorophenyl)-1,1-dimethylurea]
CHL (chlorosis) (Turnip; KARMEX 10% dose, High Enzyme): 18%
NEC (necrosis) (Turnip; KARMEX 10% dose, High Enzyme): 15%
PHY (phytotoxicity) (Turnip; KARMEX 10% dose, High Enzyme): 11%
VIG (vigor) (Turnip; KARMEX 10% dose, High Enzyme): 0%
CHL (chlorosis) (Turnip; KARMEX 10% dose, Low Enzyme): 18%
NEC (necrosis) (Turnip; KARMEX 10% dose, Low Enzyme): 15%
PHY (phytotoxicity) (Turnip; KARMEX 10% dose, Low Enzyme): 11%
VIG (vigor) (Turnip; KARMEX 10% dose, Low Enzyme): 5%
CHL (chlorosis) (Turnip; KARMEX 10% dose, No Enzyme): 28%
NEC (necrosis) (Turnip; KARMEX 10% dose, No Enzyme): 10%
PHY (phytotoxicity) (Turnip; KARMEX 10% dose, No Enzyme): 13%
VIG (vigor) (Turnip; KARMEX 10% dose, No Enzyme): 0%
CHL (chlorosis) (Turnip; KARMEX 40% dose, High Enzyme): 35%
NEC (necrosis) (Turnip; KARMEX 40% dose, High Enzyme): 25%
PHY (phytotoxicity) (Turnip; KARMEX 40% dose, High Enzyme): 36%
VIG (vigor) (Turnip; KARMEX 40% dose, High Enzyme): 50%
CHL (chlorosis) (Turnip; KARMEX 40% dose, Low Enzyme): 30%
NEC (necrosis) (Turnip; KARMEX 40% dose, Low Enzyme): 50%
PHY (phytotoxicity) (Turnip; KARMEX 40% dose, Low Enzyme): 41%
VIG (vigor) (Turnip; KARMEX 40% dose, Low Enzyme): 43%
CHL (chlorosis) (Turnip; KARMEX 40% dose, No Enzyme): 25%
NEC (necrosis) (Turnip; KARMEX 40% dose, No Enzyme): 38%
PHY (phytotoxicity) (Turnip; KARMEX 40% dose, No Enzyme): 33%
VIG (vigor) (Turnip; KARMEX 40% dose, No Enzyme): 37%
Phytotoxicity with enzyme (Turnip; KARMEX at 40% of the recommended dosage, with enzyme, sprayed on turnips): increased phytotoxicity
CHL (chlorosis) (Soybeans; KARMEX 10% dose, High Enzyme): 0%
NEC (necrosis) (Soybeans; KARMEX 10% dose, High Enzyme): 0%
PHY (phytotoxicity) (Soybeans; KARMEX 10% dose, High Enzyme): 0%
VIG (vigor) (Soybeans; KARMEX 10% dose, High Enzyme): 0%
CHL (chlorosis) (Soybeans; KARMEX 10% dose, Low Enzyme): 0%
NEC (necrosis) (Soybeans; KARMEX 10% dose, Low Enzyme): 0%
PHY (phytotoxicity) (Soybeans; KARMEX 10% dose, Low Enzyme): 0%
VIG (vigor) (Soybeans; KARMEX 10% dose, Low Enzyme): 0%
CHL (chlorosis) (Soybeans; KARMEX 10% dose, No Enzyme): 0%
NEC (necrosis) (Soybeans; KARMEX 10% dose, No Enzyme): 0%
PHY (phytotoxicity) (Soybeans; KARMEX 10% dose, No Enzyme): 0%
VIG (vigor) (Soybeans; KARMEX 10% dose, No Enzyme): 0%
CHL (chlorosis) (Soybeans; KARMEX 40% dose, High Enzyme): 0%
NEC (necrosis) (Soybeans; KARMEX 40% dose, High Enzyme): 13%
PHY (phytotoxicity) (Soybeans; KARMEX 40% dose, High Enzyme): 8%
VIG (vigor) (Soybeans; KARMEX 40% dose, High Enzyme): 10%
CHL (chlorosis) (Soybeans; KARMEX 40% dose, Low Enzyme): 0%
NEC (necrosis) (Soybeans; KARMEX 40% dose, Low Enzyme): 15%
PHY (phytotoxicity) (Soybeans; KARMEX 40% dose, Low Enzyme): 6%
VIG (vigor) (Soybeans; KARMEX 40% dose, Low Enzyme): 5%
CHL (chlorosis) (Soybeans; KARMEX 40% dose, No Enzyme): 0%
NEC (necrosis) (Soybeans; KARMEX 40% dose, No Enzyme): 10%
PHY (phytotoxicity) (Soybeans; KARMEX 40% dose, No Enzyme): 3%
VIG (vigor) (Soybeans; KARMEX 40% dose, No Enzyme): 0%
Phytotoxicity (various plants; KARMEX under the test conditions): low

CC(C)N1C(=O)c2ccccc2NS1(=O)=O [BASAGRAN, 3-(1-methylethyl)-1H-,2,1,3-benzothiadiazin-4(3H)-one 2,2-dioxide]
CHL (chlorosis) (Turnip; BASAGRAN 10% dose, High Enzyme): 38%
NEC (necrosis) (Turnip; BASAGRAN 10% dose, High Enzyme): 50%
PHY (phytotoxicity) (Turnip; BASAGRAN 10% dose, High Enzyme): 50%
VIG (vigor) (Turnip; BASAGRAN 10% dose, High Enzyme): 63%
CHL (chlorosis) (Turnip; BASAGRAN 10% dose, Low Enzyme): 38%
NEC (necrosis) (Turnip; BASAGRAN 10% dose, Low Enzyme): 63%
PHY (phytotoxicity) (Turnip; BASAGRAN 10% dose, Low Enzyme): 59%
VIG (vigor) (Turnip; BASAGRAN 10% dose, Low Enzyme): 75%
CHL (chlorosis) (Turnip; BASAGRAN 10% dose, No Enzyme): 25%
NEC (necrosis) (Turnip; BASAGRAN 10% dose, No Enzyme): 25%
PHY (phytotoxicity) (Turnip; BASAGRAN 10% dose, No Enzyme): 29%
VIG (vigor) (Turnip; BASAGRAN 10% dose, No Enzyme): 38%
% PHY (phytotoxicity) (Turnip; [1]): 41%
CHL (chlorosis) (Turnip; [1]): 30%
NEC (necrosis) (Turnip; [1]): 50%
VIG (vigor) (Turnip; [1]): 43%
% PHY (phytotoxicity) (Turnip; [2]): 78%
CHL (chlorosis) (Turnip; [2]): 63%
NEC (necrosis) (Turnip; [2]): 85%
VIG (vigor) (Turnip; [2]): 85%
% PHY (phytotoxicity) (Turnip; [3]): 48%
CHL (chlorosis) (Turnip; [3]): 25%
NEC (necrosis) (Turnip; [3]): 63%
VIG (vigor) (Turnip; [3]): 55%
CHL (chlorosis) (Soybeans; BASAGRAN 10% dose, High Enzyme): 18%
NEC (necrosis) (Soybeans; BASAGRAN 10% dose, High Enzyme): 38%
PHY (phytotoxicity) (Soybeans; BASAGRAN 10% dose, High Enzyme): 43%
VIG (vigor) (Soybeans; BASAGRAN 10% dose, High Enzyme): 73%
CHL (chlorosis) (Soybeans; BASAGRAN 10% dose, Low Enzyme): 18%
NEC (necrosis) (Soybeans; BASAGRAN 10% dose, Low Enzyme): 43%
PHY (phytotoxicity) (Soybeans; BASAGRAN 10% dose, Low Enzyme): 37%
VIG (vigor) (Soybeans; BASAGRAN 10% dose, Low Enzyme): 50%
CHL (chlorosis) (Soybeans; BASAGRAN 10% dose, No Enzyme): 5%
NEC (necrosis) (Soybeans; BASAGRAN 10% dose, No Enzyme): 5%
PHY (phytotoxicity) (Soybeans; BASAGRAN 10% dose, No Enzyme): 8%
VIG (vigor) (Soybeans; BASAGRAN 10% dose, No Enzyme): 13%
% PHY (phytotoxicity) (Soybeans; [1]): 2%
CHL (chlorosis) (Soybeans; [1]): 0%
NEC (necrosis) (Soybeans; [1]): 5%
VIG (vigor) (Soybeans; [1]): 0%
% PHY (phytotoxicity) (Soybeans; [2]): 48%
CHL (chlorosis) (Soybeans; [2]): 48%
NEC (necrosis) (Soybeans; [2]): 48%
VIG (vigor) (Soybeans; [2]): 48%
% PHY (phytotoxicity) (Soybeans; [3]): 25%
CHL (chlorosis) (Soybeans; [3]): 25%
NEC (necrosis) (Soybeans; [3]): 25%
VIG (vigor) (Soybeans; [3]): 25%
Plants killed (various plants; BASAGRAN applied at 40% of the recommended dosage, two weeks after treatment): completely killed
